Converted amounts (≈) assume the structure as drawn.

Experiment [1] has as its target CnFTase (C. neoformans farnesyl transferase, α/β heterodimer) (Cryptococcus neoformans, UniProt J9VSJ6+T2BPA1). Nature of the experiment: CnFTase activity assay: farnesylation of a dansylated (fluorescent) peptide, inhibitor concentration giving half-maximal enzyme rates at 1 μM FPP (1μMIC50). As to conditions: read-out: CnFTase IC50 (1μMIC50), condition A: 20 nM CnFTase, dansyl-GCVVM 0.62 μM, Tris-HCl pH 7.5, ZnCl2 12.5 μM, 2.5% DMSO, room temperature, triplicate.
Method: CnFTase activity assay. […] Final CnFTase concentrations (from 5× or 10× stocks in 20 mM Tris-HCl pH7.5, 20 mM NaCl, 5 μM ZnCl2, 1 mM TCEP, 1 mg/mL BSA): A, 20 nM; B: 4.4, 6.7, 10 nM triplets. […] For experiments that included phosphate, pH 7.5 stock was added to the desired final concentration. […] Data for determining ^1μMIC50 values (condition A) was collected in triplicate. Initial rates, vo, were extracted by fitting a straight line to the initial to tmax seconds of the reaction progress curves, where tmax values were selected by inspection and entered into curator tables for automated analysis. 1μMIC50 were determined by fitting a single-site Langmuir ligand-binding isotherm to the dependence of vo on inhibitor concentration (2, see below). All other experiments (condition B) all other experiments (condition B) used three different CnFTase concentrations, collecting progress curves as a function of FPP, inhibitor, and phosphate concentrations. The resulting triplet of progress curves was used to extract vo values automatically by minimizing
If x is an inhibitor concentration, then IC50=Ka^−1. […] In general, baseline signals, σ, (α or β) can be constant, or linear functions of ligand concentration x

Experiment [2] concerns C. neoformans. Nature of the experiment: Minimum inhibitory concentration (MIC): disc diffusion and broth microdilution. As to conditions: Cryptococcus neoformans.
Method: Antifungal activity was determined by measuring minimum inhibitory concentrations (MIC) of C. neoformans by two methods: a solid medium disc diffusion assay and broth microdilution assay.
Disc diffusion assay. Overnight cultures of C. neoformans (about 18 hours) were normalized to OD600 0.6, diluted 1/10, and 200 μL of each sample were spread onto either a YPD or YPGal (yeast extract-peptone medium with 3% galactose) plate using sterile glass beads. After drying, 10 μL of compound or solvent control (DMSO) was added to sterile 6 mm filter discs on each plate. Plates were incubated for 48 hours at 37° C.
Minimum inhibitory concentration (MIC) assays. C. neoformans: Overnight cultures (˜18 h) of C. neoformans strains incubated in YPD medium were diluted to 500 cells/ml in RPMI medium buffered with MOPS. Cells were aliquoted (200 μL/well) in black-wall, clear-bottom 96-wells plates (Greiner). Compound stock solutions in DMSO ranged from 9 μM to 20 mM, and added to 200 μL cell suspension aliquoted in 96-well plates. Final aqueous concentrations ranged from 200 μM to 0.09 μM, limiting DMSO to 1%. After 48-hr incubation at 37° C. or 30° C. for 48 h, 10% AlamarBlue (BioRad) was added. The end-point fluorescence intensity of reduced AlamarBlue was measured using a fluorescence plate reader (FLUORStar Optima plate reader) at the time point the indicator turned from blue to pink in healthy control cells.^51 Assays were performed in duplicate.
Experiment [3] deals with C. neoformans FTase (CnFTase). The experiment in a line: CnFTase activity assay, farnesylation of a fluorescent (dansylated) peptide, 1μMIC50. The note with it: pairwise comparison of analogues differing in one R group. The class given is biochemical, Cryptococcus neoformans. Here is the method:
The library of 23 compounds contained leads with 60- to 150-fold enhanced ^1μMIC50 values.
CnFTase activity assay. The farnesyl transferase activity was measured by measuring the time dependence of the fluorescence emission intensity increase due to farnesylation of a dansylated peptide (Cassidy, P. B, et al., Methods Enzymol, 1995, 250, 30-43). Measurements were taken at room temperature in a 96-well black polystyrene, half area, flat bottom, non-binding surface plate using a SpectraMax M5e plate reader (excitation wavelength, 340 nm; emission wavelength 525 nm; emission high-pass filter, 455 nm). […] Final CnFTase concentrations (from 5× or 10× stocks in 20 mM Tris-HCl pH7.5, 20 mM NaCl, 5 μM ZnCl2, 1 mM TCEP, 1 mg/mL BSA): A, 20 nM; B: 4.4, 6.7, 10 nM triplets. […] For experiments that included phosphate, pH 7.5 stock was added to the desired final concentration. Data was analyzed using Python scripts for the Biomolecular Computing (BMC) package, included in the Dryad electronic repository. Data for determining ^1μMIC50 values (condition A) was collected in triplicate. Initial rates, vo, were extracted by fitting a straight line to the initial to tmax seconds of the reaction progress curves, where tmax values were selected by inspection and entered into curator tables for automated analysis. 1μMIC50 were determined by fitting a single-site Langmuir ligand-binding isotherm to the dependence of vo on inhibitor concentration (2, see below). All other experiments (condition B) […] used three different CnFTase concentrations, collecting progress curves as a function of FPP, inhibitor, and phosphate concentrations. The resulting triplet of progress curves was used to extract vo values automatically by minimizing
Single-site binding isotherms. Signals, S, resulting from a binding reaction were fit to
where α and β are the baselines associated with the apo-protein and its ligand complex, respectively, and y fractional occupancy of the binding site
If x is an inhibitor concentration, then IC50=Ka^−1. For Michaelis-Menten analysis 2 is reduced to a standard form (Bahar, I.; Jernigan, R. L.; Dill, K. A. Protein Actions, principles & modeling. Garland Science: 2017) with S=vo (initial rates), α=0, β=Vmax (maximal velocity), and KM=Ka^−1 (substrate dissociation constant). In general, baseline signals, σ, (α or β) can be constant, or linear functions of ligand concentration x

Chain of CnFTase (C. neoformans farnesyl transferase, α/β heterodimer) (J9VSJ6 entry or part of it): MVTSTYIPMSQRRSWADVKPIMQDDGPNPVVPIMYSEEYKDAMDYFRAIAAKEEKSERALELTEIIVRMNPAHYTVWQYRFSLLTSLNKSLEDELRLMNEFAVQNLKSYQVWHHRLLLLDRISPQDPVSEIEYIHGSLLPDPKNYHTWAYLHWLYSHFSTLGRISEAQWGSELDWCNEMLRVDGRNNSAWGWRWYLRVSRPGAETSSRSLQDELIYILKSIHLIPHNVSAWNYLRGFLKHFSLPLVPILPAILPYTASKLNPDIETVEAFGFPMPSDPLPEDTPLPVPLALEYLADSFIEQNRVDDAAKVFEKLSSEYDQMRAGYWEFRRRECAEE
Chain of CnFTase (C. neoformans farnesyl transferase, α/β heterodimer) (T2BPA1 entry or part of it): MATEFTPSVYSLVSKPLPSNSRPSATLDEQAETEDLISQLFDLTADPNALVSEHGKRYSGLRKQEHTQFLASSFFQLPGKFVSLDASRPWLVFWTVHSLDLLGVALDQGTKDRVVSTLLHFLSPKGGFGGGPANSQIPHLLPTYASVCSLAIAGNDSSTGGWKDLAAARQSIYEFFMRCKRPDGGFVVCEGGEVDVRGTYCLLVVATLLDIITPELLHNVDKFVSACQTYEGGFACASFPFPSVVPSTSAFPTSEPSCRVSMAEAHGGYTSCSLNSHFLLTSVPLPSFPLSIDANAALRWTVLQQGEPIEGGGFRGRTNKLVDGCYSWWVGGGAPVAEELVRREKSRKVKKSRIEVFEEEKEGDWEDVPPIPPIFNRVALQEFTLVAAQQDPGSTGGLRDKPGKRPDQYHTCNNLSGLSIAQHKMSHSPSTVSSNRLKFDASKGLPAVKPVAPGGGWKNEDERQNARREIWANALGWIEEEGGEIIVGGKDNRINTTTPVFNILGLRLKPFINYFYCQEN

The IC50 is the concentration at which inhibition is half-maximal. As to `CCCC[C@H]1CN(c2cccc(Cl)c2)C(=O)CN1Cc1cncn1Cc1ccc(C#N)cc1` [Compound 2a, (S)-4-((5-((2-Butyl-4-(3-chlorophenyl)-5-oxopiperazin-1-yl)methyl)-1H-imidazol-1-yl)methyl)benzonitrile], in experiment [1], the IC50 is 100 ± 10 nM.
`CCCC[C@H]1CN(c2cccc(Cl)c2)C(=O)CN1Cc1cncn1Cc1ccc(Br)cc1` [Compound 2b, (S)-4-((1-(4-Bromobenzyl)-1H-imidazol-5-yl)methyl)-5-butyl-1-(3-chlorophenyl)piperazin-2-one]: the IC50 in experiment [1] stood at 1100 ± 780 nM.
`CCCC[C@H]1CN(c2cccc(Cl)c2)C(=O)CN1Cc1cncn1Cc1ccc(Cl)cc1` [Compound 2c, (S)-5-Butyl-4-((1-(4-chlorobenzyl)-1H-imidazol-5-yl)methyl)-1-(3-chlorophenyl)piperazin-2-one]: the IC50 in experiment [1] was 1600 ± 800 nM.
Same read-out and setting: next, `CCCC[C@H]1CN(c2cccc(OC(F)(F)F)c2)C(=O)CN1Cc1cncn1Cc1ccc(C#N)cc1` [Compound 2d, (S)-4-((5-((2-butyl-5-oxo-4-(3-(trifluoromethoxy)-phenyl)piperazin-1-yl)methyl)-1H-imidazol-1-yl)methyl)benzonitrile]: 340 ± 220 nM.
One may read the MIC as the lowest concentration that inhibits growth of the organism. Read a high MIC as weaker potency. In experiment [2], `CCCC[C@H]1CN(c2cccc(OC(F)(F)F)c2)C(=O)CN1Cc1cncn1Cc1ccc(Cl)cc1` [Compound 2e] displayed an MIC of 3 to 6 µM (≈ 1.56 to 3.13 µg/mL). The IC50 in experiment [1] was 260 ± 130 nM.
With `CCCC[C@H]1CN(c2cccc(OC(F)(F)F)c2)C(=O)CN1Cc1cncn1Cc1ccc(F)cc1` [Compound 2g, (S)-5-butyl-4-((1-(4-fluorobenzyl)-1H-imidazol-5-yl)methyl)-1-(3-(trifluoromethoxy)phenyl)piperazin-2-one], the IC50 in experiment [1] turned out to be 710 ± 240 nM.
In the case of `CCCC[C@H]1CN(c2cccc(OC(F)(F)F)c2)C(=O)CN1Cc1cncn1Cc1ccc(C(F)(F)F)cc1` [Compound 2h, (S)-5-Butyl-1-(3-(trifluoromethoxy)phenyl)-4-((1-(4-(trifluoromethyl)benzyl)-1H-imidazol-5-yl)methyl)piperazin-2-one], the MIC in experiment [2] fell in the range of 3 to 6 µM (≈ 1.66 to 3.33 µg/mL). The IC50 in experiment [1] is 280 ± 150 nM.
Regarding `CCCC[C@H]1CN(c2cccc(OC(F)(F)F)c2)C(=O)CN1Cc1cncn1Cc1ccccc1` [Compound 2i, (S)-4-((1-Benzyl-1H-imidazol-5-yl)methyl)-5-butyl-1-(3-(trifluoromethoxy)phenyl)piperazin-2-one], the half-inhibitory concentration (IC50) in experiment [1] is 1900 ± 1700 nM.
Regarding `N#Cc1ccc(Cn2cncc2CN2CCN(c3cccc(OC(F)(F)F)c3)C(=O)C2)cc1` [Compound 2j, (S)-4-((5-((3-Oxo-4-(3-(trifluoromethoxy)phenyl)piperazin-1-yl)methyl)-1H-imidazol-1-yl)methyl)benzonitrile], the “change of affinity relative to the comparator analogue (cf.)” value in experiment [3] is “had little effect or were slightly deleterious”. In experiment [1], the IC50 stood at 2700 ± 1100 nM.
`CCC[C@H]1CN(c2cccc(OC(F)(F)F)c2)C(=O)CN1Cc1cncn1Cc1ccc(Br)cc1` [Compound 2k, (S)-4-((1-(4-Bromobenzyl)-1H-imidazol-5-yl)methyl)-5-propyl-1-(3-(trifluoromethoxy)phenyl) piperazin-2-one] registered an MIC in experiment [2] of 3 to 6 µM (≈ 1.65 to 3.31 µg/mL). In addition, the “change of affinity relative to the comparator analogue (cf.)” value in experiment [3] is recorded as “reduced affinity”. In experiment [1], the IC50 was determined as 1100 ± 510 nM.
`CCCCC[C@H]1CN(c2cccc(OC(F)(F)F)c2)C(=O)CN1Cc1cncn1Cc1ccc(Br)cc1` [Compound 2l, (S)-4-((1-(4-Bromobenzyl)-1H-imidazol-5-yl)methyl)-5-pentyl-1-(3-(trifluoromethoxy)phenyl)piperazin-2-one]: in experiment [1], the 50% inhibitory concentration (IC50) was determined as 160 ± 20 nM.
As for `CCCC[C@H]1CN(c2ccccc2)C(=O)CN1Cc1cncn1Cc1ccc(Br)cc1` [Compound 2m, (S)-4-((1-(4-Bromobenzyl)-1H-imidazol-5-yl)methyl)-5-butyl-1-phenylpiperazin-2-one], in experiment [1], the IC50 stood at 920 ± 510 nM.
In the case of `CCCC[C@H]1CN(c2cccc(C)c2C)C(=O)CN1Cc1cncn1Cc1ccc(C#N)cc1` [Compound 2n, (S)-4-((5-((2-butyl-4-(2,3-dimethylphenyl)-5-oxopiperazin-1-yl)methyl)-1H-imidazol-1-yl)methyl)benzonitrile], the “change of affinity relative to the comparator analogue (cf.)” value in experiment [3] is reported as “had little effect or were slightly deleterious”. The IC50 in experiment [1] was found to be 2200 ± 1300 nM.
With `CCCC[C@H]1CN(c2cccc(OC(F)(F)F)c2)C(=O)CN1Cc1cncn1Cc1cccc(C#N)c1` [Compound 2o, (S)-3-((5-((2-Butyl-5-oxo-4-(3-(trifluoromethoxy)-phenyl)piperazin-1-yl)methyl)-1H-imidazol-1-yl)methyl)benzonitrile], the 50% inhibitory concentration (IC50) in experiment [1] stood at 740 ± 310 nM.
In the case of `CCCC[C@H]1CN(c2cccc(OC(F)(F)F)c2)C(=O)CN1Cc1cncn1Cc1ccc(F)c(C#N)c1` [Compound 2p, (S)-5-((5-((2-Butyl-5-oxo-4-(3-(trifluoromethoxy)phenyl)piperazin-1-yl)methyl)-1H-imidazol-1-yl)methyl)-2-fluorobenzonitrile], the IC50 in experiment [1] turned out to be 180 ± 100 nM.
Same read-out and setting: next, `N#Cc1cc(Cn2cncc2CN2CCN(c3cccc(OC(F)(F)F)c3)C(=O)C2)ccc1F` [Compound 2r, 2-Fluoro-5-((5-((3-oxo-4-(3-(trifluoromethoxy)phenyl)piperazin-1-yl)methyl)-1H-imidazol-1-yl)methyl)benzonitrile]: 550 ± 30 nM.
With `N#Cc1ccc(Cn2cncc2CN2CCN(c3cccc(OC(F)(F)F)c3)C(=O)C2)cc1F` [Compound 2s, 2-Fluoro-4-((5-((3-Oxo-4-(3-(trifluoromethoxy)phenyl)piperazin-1-yl)methyl)-1H-imidazol-1-yl)methyl)benzonitrile], in experiment [3], the “change of affinity relative to the comparator analogue (cf.)” value was 20 fold. For the same molecule, the half-inhibitory concentration (IC50) in experiment [1] came to 120 ± 40 nM.
Take `CCCC[C@H]1CN(c2cccc(OC(F)(F)F)c2)C(=O)CN1Cc1cncn1Cc1ccc(Oc2ccccc2)c(C#N)c1` [Compound 2t, (S)-5-((5-((2-Butyl-5-oxo-4-(3-(trifluoromethoxy)phenyl)-piperazin-1-yl)methyl)-1H-imidazol-1-yl)methyl)-2-phenoxybenzonitrile]: the IC50 in experiment [1] turned out to be 210 ± 100 nM.
Turning to `CCCC[C@H]1CN(c2cccc(OC(F)(F)F)c2)C(=O)CN1Cc1cncn1Cc1ccc(C#N)c(Oc2ccccc2)c1` [Compound 2u, (S)-4-((5-((2-butyl-5-oxo-4-(3-(trifluoromethoxy)phenyl)-piperazin-1-yl)methyl)-1H-imidazol-1-yl)methyl)-2-phenoxybenzonitrile], in experiment [3], the “change of affinity relative to the comparator analogue (cf.)” value is “did not alter affinities”. The IC50 in experiment [1] stood at 150 ± 60 nM.
As for `N#Cc1cc(Cn2cncc2CN2CCN(c3cccc(OC(F)(F)F)c3)C(=O)C2)ccc1Oc1ccccc1` [Compound 2v], in experiment [1], the IC50 was 320 ± 100 nM.
Regarding `N#Cc1ccc(Cn2cncc2CN2CCN(c3cccc(OC(F)(F)F)c3)C(=O)C2)cc1Oc1ccccc1` [Compound 2w, 4-((5-((3-Oxo-4-(3-(trifluoromethoxy)phenyl)piperazin-1-yl)methyl)-1H-imidazol-1-yl)methyl)-2-phenoxybenzonitrile], the “change of affinity relative to the comparator analogue (cf.)” value in experiment [3] is “did not alter affinities”. Also, in experiment [1], the IC50 came out at 2600 ± 1400 nM.
`CCCCC[C@H]1CN(c2cccc(OC(F)(F)F)c2)C(=O)CN1Cc1cncn1Cc1ccc(Br)cc1` [Compound 21, (S)-4-((1-(4-Bromobenzyl)-1H-imidazol-5-yl)methyl)-5-pentyl-1-(3-(trifluoromethoxy)phenyl)piperazin-2-one] displayed an MIC in experiment [2] of 3 to 6 µM (≈ 1.74 to 3.48 µg/mL). Also, the “change of affinity relative to the comparator analogue (cf.)” value in experiment [3] is reported as “showed little improvement”.

(Values after patent US20250114350A1, “INHIBITORS OF […] AS ANTIFUNGAL AGENTS” (Regents of the University of Minnesota, priority 2023, published 2025).)
